“Also recorded” adds a separate entry of the source. Ends that are not written are not given here.
Experiments:
[1] = tested on: ES cell-derived pituitary precursor tissue; assay: Differentiation of ES cell-derived pituitary precursor tissue into ACTH-producing cells, fluorescence antibody staining; format: cell-based, mouse; conditions: for expression of Pitx1: DAPT, BIO or IWP2 treatment, day 26 (FIG. 3k)
Method: Furthermore, using gfCDM medium, the aggregates were cultured under 40% O2 and 5% CO2 for 12 days in total (total 22 days). Moreover, the aggregates were treated with Notch signal inhibitor, 10 μM DAPT, for one day during days 18-19 or days 20-21 of culture.

[2] = tested on: ES cell-derived pituitary precursor tissue; assay: Differentiation of ES cell-derived pituitary precursor tissue into GH-, PRL-, LH-, FSH-, TSH-positive cells; format: cell-based, mouse
Method: Mouse ES cells were differentiated into pituitary precursor tissues by an SAG treatment (400 nM for 7 days and 100 nM for 3 days, total 10 days) using the method of Example 2. Furthermore, the aggregates were continuously floating-cultured under 40% O2 and 5% CO2. The medium used was gfCDM comprising corticosteroid (200 ng/ml hydrocortisone) and 1 nM insulin, gfCDM comprising estrogen (50 ng/ml estradiol) and 1 nM insulin, or culture supernatant (conditioned medium) of mouse feeder cell, PA6 cell, in gfCDM.
The expression of growth hormone (GH), prolactin (PRL), luteinizing hormone (LH), follicle-stimulating hormone (FSH), and thyroid-stimulating hormone (TSH) was confirmed by cytochemical staining of frozen section by the fluorescence antibody method.

hedgehog signaling = conditions: cited from earlier work
[3] = tested on: mouse ES cell aggregates (10000 cells per aggregate); assay: Induction of pituitary precursor tissue (Lim3) in mouse ES cell aggregates by hedgehog signal treatment; format: cell-based
Method: Aggregates of mouse ES cells were formed from 10000 cells per aggregate by using the SFEBq/gfCDM method (Wataya et al, 2008, PNAS vol. 105, pp. 11796-11801), and subjected to the floating-culture as in Example 1. Immediately after the start of the differentiation culture, SAG (Danjo et al, JNS, 2011, vol. 31, pp. 1919-1933), a hedgehog agonist, was added at 100 or 400 nM, and the aggregates were cultured for a total of 10-13 days. […] The expression of Lim3, a marker of pituitary precursor tissue (Rathke's pouch), and the like was confirmed by PCR or cytochemical staining of frozen section by the fluorescence antibody method. The expression of Lim3 was also confirmed using Lim3::GFP knocked-in ES cells.

[4] = tested on: ES cell-derived ACTH-producing cells; assay: In vitro ACTH secretion from ES cell-derived ACTH-producing cells by CRH, ELISA of culture supernatant; format: cell-based, mouse
[5] = tested on: ES cell-derived ACTH-producing cells; assay: as above; format: cell-based, mouse; conditions: 10 min, SAG- and DAPT-treated aggregates
Method: Mouse ES cells were differentiated into ACTH-producing cells by a SAG treatment and a DAPT treatment (total 22 days) using the method of Example 3. The aggregates were treated with CRH (corticotropin releasing factor) and ACTH secretion was quantified. To be specific, eight aggregates were placed in 500 μl of HBSS solution and, after pre-incubation at 37° C. for 10 min, CRH was added at a final concentration of 10-10000 ng/ml, and the aggregates were incubated for 10 min. Then, the culture supernatant was recovered and measured by ELISA method (FIG. 4a).

mouse ES cell aggregates = assay: SFEBq/gfCDM floating culture of mouse ES cell aggregates, non-neural head ectoderm marker Pitx2 by qPCR; format: cell-based; conditions: BMP4 0.5 nM added to the medium, SFEBq/CDM-cultured ESCs
human ES cells = assay: Floating aggregate culture of human ES cells with BMP4 and SAG, Pitx1 by qPCR and marker staining; format: cell-based; conditions: for E-cad positive non-neural ectoderm morphology: BMP-treated group, day 25 of culture
Method: Human ES cells (12000 cells) dispersed into single-cells with trypsin were subjected to floating aggregate culture in the presence of a […] ROCK inhibitor Y-27632 (Watanabe et al, Nature Neuroscience, 2007) in the same manner as in Example 1. The culture medium used was gfCDM added with 5% KSR. From day 3 of culture, 0.5 nM, 1.5 nM or 5.0 nM BMP4 was added to the culture medium, 1000 nM SAG was added from day 6 of culture, and the floating-culture was continued.

[6] = SAG 100 or 400 nM, PCR on day 10 and later

O=C1Nc2cc(Br)ccc2/C1=C1/Nc2ccccc2/C1=N\O [BIO, 6-bromoindirubin-3′-oxime]
expression of Pitx1 [1]: greatly increased
further increase of GH-positive cells ([2]; BIO 250 nM during days 16-18 of culture, then hydrocortisone and insulin): 30-50%

C[C@H](NC(=O)Cc1cc(F)cc(F)c1)C(=O)N[C@H](C(=O)OC(C)(C)C)c1ccccc1 [DAPT]
expression of Tbx19 compared to without DAPT treatment ([1]; 10 μM DAPT for one day, days 18-19 or 20-21, SAG-treated aggregates): enhanced Tbx19 expression
percentage of ACTH-positive cells ([1]; 10 μM DAPT for one day, day 22): increased percentage
size of assemblies of Tbx19- and ACTH-highly positive cells ([1]; 10 μM DAPT treatment, assemblies in plural sites): > 30 cells
expression of Pitx1 [1]: did not increase, or rather decreased

Cc1ccc2nc(NC(=O)CSc3nc4c(c(=O)n3-c3ccccc3)SCC4)sc2c1 [IWP2]
expression of Pitx1 [1]: tended to decrease

CNC1CCC(N(Cc2cccc(-c3ccncc3)c2)C(=O)c2sc3ccccc3c2Cl)CC1 (stereo not drawn) [SAG]
activity compared with Shh (hedgehog signaling): several-fold stronger activity than Shh
gene expression of Lim3 relative to SAG non-addition group [3, 6]: 7 fold
gene expression of Lim3 relative to undifferentiated ES cells [3, 6]: 15 fold
number of Lim3-positive epithelial pouch vesicles formed in the aggregate ([3]; SAG-addition group, further 3 days in gfCDM, total 13 days): 1-7

Cc1nn(-c2ccccc2)c(C)c1/C=N/N1CCN(Cc2ccccc2)CC1 [SANT-1]
effect on SAG induction of Lim3 ([3]; hedgehog receptor antagonist added to SAG-treated aggregates): inhibited

C[C@]12CCC(=O)C=C1CC[C@@H]1[C@@H]2[C@@H](O)C[C@@]2(C)[C@H]1CC[C@]2(O)C(=O)CO [hydrocortisone]
effect of pre-treatment on the ACTH secretion promoting effect of CRH ([4]; hydrocortisone 100 ng/ml pre-treatment for 60 min): suppressed almost completely; also recorded: suppressed the enhancement of ACTH secretion by CRH
GH-positive cells in the aggregate ([2]; gfCDM with 200 ng/ml hydrocortisone and 1 nM insulin for 10 days from day 20): many GH-positive cells

CRH: corticotropin releasing factor, hypothalamic hormone promoting ACTH secretion (SEEPPISLDLTFHLLREVLEMARAEQLAQQAHSNRKLMEII; ends and bridges not checked; UniProt P06850 154-194, looked up)
ACTH secretion ([4]; 1000 ng/ml CRH, aggregates without SAG treatment): did not show a significant increase
ACTH secretion ([4]; CRH added, aggregates with SAG treatment but without DAPT treatment): did not show much increase
induction of ACTH secretion by releasing hormones ([4]; SAG- and DAPT-treated aggregates (FIG. 4b)): CRH-specific; also recorded: enhancement of ACTH secretion
ACTH concentration of the culture supernatant ([5]; 10 ng/ml CRH): 1.4 pg/mL
ACTH concentration of the culture supernatant ([5]; 100 ng/ml CRH): 4 pg/mL
ACTH concentration of the culture supernatant ([5]; 1000 ng/ml CRH): 8.5 to 9.5 pg/mL
ACTH concentration of the culture supernatant ([5]; 10000 ng/ml CRH): 8.5 to 9.5 pg/mL

B1: FGF8: FGF signal promoter (protein, UniProt P55075 23-233, looked up)
Fibroblast growth factor 8: QEGPGRGPALGRELASLFRAGREPQGVSQQHVREQSLVTDQLSRRLIRTYQLYSRTSGKHVQVLANKRINAMAEDGDPFAKLIVETDTFGSRVRVRGAETGLYICMNKKGKLIAKSNGKGKDCVFTEIVLENNYTALQNAKYEGWYMAFTRKGRPRKGSKTRQHQREVHFMKRLPRGHHTTEQSLRFEFLNYPPFTRSLRGSQRTWAPEPR
increase of tissues expressing Lim3 ([3]; FGF8 200 ng/ml during day 10-13, gfCDM without SAG): 30-50%

B2: BMP4: Bone Morphogenetic protein of the BMP2/4 group; exogenous BMP signal promoter (protein, UniProt P12644 293-408, looked up)
Bone morphogenetic protein 4: SPKHHSQRARKKNKNCRRHSLYVDFSDVGWNDWIVAPPGYQAFYCHGDCPFPLADHLNSTNHAIVQTLVNSVNSSIPKACCVPTELSAISMLYLDEYDKVVLKNYQEMVVEGCGCR
expression of Pitx2 (mouse ES cell aggregates): increases; also recorded: elevation of Pitx2 expression
expression of Pitx1 compared to the group without the treatment (human ES cells; 5 nM BMP4 from day 3, 12000 cells/aggregate, qPCR day 17): about 10 fold
result when started from 3000 and 6000 human ES cells (human ES cells; BMP4 added to the medium): equivalent results were obtained
E-cad positive non-neural ectoderm morphology (human ES cells): formation of E-cadherin^+ thickened non-neural ectoderm
E-cad positive non-neural ectoderm morphology (human ES cells; listed as BMP): a part thereof was thickened to show a placode-like structure

Source: patent US11834672B2, “Method for producing hypophysis precursor tissue” (RIKEN, priority 2011, dated 2023)
